Experimental data reported in publication PMC5971061, “Differential Effects of Linkers on the Activity of Amphiphilic Tobramycin Antifungals” (Molecules : A Journal of Synthetic Chemistry and Natural …, 2018).
Converted amounts (≈) assume the structure as drawn. Where two headings read alike, the source gives them in different places.

Assays:
[1] = tested on: Aspergillus terreus ATCC MYA-3633 (strain M); experiment: MIC, filamentous fungi (CLSI M38-A2), strain M; assay type: cell-based; settings: MIC-0, strain M, 35 °C 72 h
Description: (§1) The spores were harvested from sporulating cultures growing on potato dextrose agar (PDA) by filtration through sterile glass wool and enumerated by using a hemocytometer (Hausser Scientific, Horsham, PA, USA) to obtain the desired inoculum size. Two-fold serial dilutions of compounds 3, 4, 7a, 7b, 9, and 16, as well as CAS and TOB were made in sterile 96-well microtiter plates to obtain the final concentration range of 0.24–62.5 μg/mL for TOB and TOB derivatives as well as 0.03–31.3 μg/mL for CAS in the RPMI 1640 medium. The spore suspensions were added to the wells to afford a final concentration of 5 × 10^5 spores/mL. The plates were incubated at 35 °C for 72 h. […] Each test was performed in triplicate.

[2] = tested on: Candida parapsilosis clinical isolate CP1; experiment: MIC, broth microdilution (CLSI M27-A3), CP1; assay type: cell-based; settings: Lodderomyces parapsilosis; MIC-0, CP1, 35 °C 48 h
Description: (§2) The final concentrations of compounds 3, 4, 7a, 7b, 9, and 16, as well as that of TOB tested in this study ranged from 0.24–62.5 μg/mL. CAS was used as a positive control and the final concentrations tested for CAS ranged from 0.03–31.3 μg/mL. Briefly, overnight yeast cultures were grown in yeast peptone dextrose (YPD) broth and the cell density was adjusted to an OD600 of 0.12 (~1 × 10^6 CFU/mL) by using a spectrophotometer. Yeast cell suspensions were further diluted to achieve 1–5 × 10^3 CFU/mL in RPMI 1640 medium, and 100 μL of these yeast cells was added to 96-well microtiter plates containing RPMI 1640 medium and titrated compounds. Each test was performed in triplicate. The plates were incubated at 35 °C for 48 h.

[3] = tested on: C. albicans ATCC 10231 (strain A); experiment: MIC, broth microdilution (CLSI M27-A3), yeast strain A; assay type: cell-based, Candida albicans; settings: Candida albicans, ATCC10231; MIC-0, strain A, 35 °C 48 h
Description: as §2

[4] = tested on: seven C. albicans strains (A-G); experiment: MIC across the panel of seven C. albicans strains; assay type: cell-based; settings: Candida albicans; across all seven C. albicans strains tested
Description: as §2

[5] = tested on: Candida glabrata clinical isolate CG3; experiment: MIC, broth microdilution (CLSI M27-A3), CG3; assay type: cell-based; settings: Nakaseomyces glabratus; MIC-0, CG3, 35 °C 48 h
Description: as §2

[6] = tested on: nine non-albicans Candida strains (H-J, CG1-3, CP1-3); experiment: MIC across the panel of nine non-albicans Candida strains; assay type: cell-based, Candida glabrata, Candida krusei, Candida parapsilosis
Description: as §2

[7] = tested on: Cryptococcus neoformans clinical isolate CN3; experiment: MIC, broth microdilution (CLSI M27-A3), CN3; assay type: cell-based; settings: MIC-0, CN3, 35 °C 48 h
Description: as §2

[8] = tested on: C. albicans ATCC 90819(R) (strain D); experiment: MIC, broth microdilution (CLSI M27-A3), yeast strain D; assay type: cell-based; settings: Candida albicans, ATCC90819; MIC-0, strain D, 35 °C 48 h
Description: as §2

[9] = tested on: C. albicans ATCC MYA-2310(S) (strain E); experiment: MIC, broth microdilution (CLSI M27-A3), yeast strain E; assay type: cell-based; settings: Candida albicans; MIC-0, strain E, 35 °C 48 h
Description: as §2

[10] = tested on: C. albicans ATCC MYA-1003(R) (strain G); experiment: MIC, broth microdilution (CLSI M27-A3), yeast strain G; assay type: cell-based; settings: Candida albicans; MIC-0, strain G, 35 °C 48 h
Description: as §2

[11] = tested on: Candida parapsilosis ATCC 22019 (strain J); experiment: MIC, broth microdilution (CLSI M27-A3), yeast strain J; assay type: cell-based; settings: Lodderomyces parapsilosis, ATCC22019; MIC-0, strain J, 35 °C 48 h
Description: as §2

[12] = tested on: Candida glabrata clinical isolate CG2; experiment: MIC, broth microdilution (CLSI M27-A3), CG2; assay type: cell-based; settings: Nakaseomyces glabratus; MIC-0, CG2, 35 °C 48 h
Description: as §2

[13] = tested on: Candida glabrata ATCC 2001 (strain H); experiment: MIC, broth microdilution (CLSI M27-A3), yeast strain H; assay type: cell-based; settings: Nakaseomyces glabratus, ATCC2001; MIC-0, strain H, 35 °C 48 h
Description: as §2

[14] = tested on: Candida parapsilosis clinical isolate CP3; experiment: MIC, broth microdilution (CLSI M27-A3), CP3; assay type: cell-based; settings: MIC-0, CP3, 35 °C 48 h
Description: as §2

[15] = tested on: C. albicans ATCC MYA-1237(R) (strain F); experiment: MIC, broth microdilution (CLSI M27-A3), yeast strain F; assay type: cell-based; settings: Candida albicans; MIC-0, strain F, 35 °C 48 h
Description: as §2

[16] = tested on: Candida krusei ATCC 6258 (strain I); experiment: MIC, broth microdilution (CLSI M27-A3), yeast strain I; assay type: cell-based; settings: Pichia kudriavzevii, ATCC6258; MIC-0, strain I, 35 °C 48 h
Description: as §2

[17] = tested on: Candida parapsilosis clinical isolate CP2; experiment: MIC, broth microdilution (CLSI M27-A3), CP2; assay type: cell-based; settings: Lodderomyces parapsilosis; MIC-0, CP2, 35 °C 48 h
Description: as §2

Hemolytic activity assay = assay type: cell-based, murine; settings: mouse, murine red blood cells (mRBCs); for hemolysis at 1 h, 0.48 μg/mL / hemolysis at 1 h, 0.975 μg/mL / hemolysis at 1 h, 1.95 μg/mL / hemolysis at 1 h, 3.9 μg/mL / hemolysis at 1 h, 7.8 μg/mL / hemolysis at 1 h, 15.6 μg/mL / hemolysis at 1 h, 31.3 μg/mL / hemolysis at 1 h, 62.5 μg/mL: mRBCs, 37 °C 1 h, ± SDEV; for hemolysis at 1 h: at their MIC values against the Aspergillus strains
Description: The hemolytic activity of compounds 3, 4, 7a, 7b, and 9 as well as the parent compound TOB was determined by using previously described methods with minor modifications. Murine whole blood (1 mL) was suspended in 4 mL of PBS and centrifuged at 1000 rpm for 10 min at room temperature to obtain murine red blood cells (mRBCs). The mRBCs were washed four times in PBS and resuspended in the same buffer to a final concentration of 10^7 erythrocytes/mL. Two-fold serial dilutions of compounds 3, 4, 7a, 7b, and 9 were prepared using 100 μL of PBS buffer in Eppendorf tubes followed by the addition of 100 μL of mRBC suspension that made the final concentration of compounds and mRBCs to be 0.48–62.5 μg/mL and 5 × 10^6 erythrocytes/mL, respectively. The tubes were incubated at 37 °C for 1 h. The tubes with PBS buffer (200 μL) and Triton X-100® (1% v/v, 2 μL) served as the negative (blank) and positive controls, respectively. The percentage of hemolysis was calculated using the following equation: % hemolysis = [(absorbance of sample) − (absorbance of blank)] × 100/(absorbance of positive control).

[18] = tested on: Aspergillus nidulans ATCC 38163 (strain L); experiment: MIC, filamentous fungi (CLSI M38-A2), strain L; assay type: cell-based; settings: MIC-0, strain L, 35 °C 72 h
Description: as §1

[19] = tested on: Candida glabrata clinical isolate CG1; experiment: MIC, broth microdilution (CLSI M27-A3), CG1; assay type: cell-based; settings: Nakaseomyces glabratus; MIC-0, CG1, 35 °C 48 h
Description: as §2

[20] = Aspergillus nidulans, ATCC38163, 72 h, read-out: MIC

SMILES | MIC [1] | MIC [2] | MIC [3] | MIC [4] | MIC [5] | MIC [6] | MIC [7] | MIC [8] | MIC [9] | MIC [10] | MIC [11] | MIC [12] | MIC [13] | MIC [14] | MIC [15] | MIC [16] | MIC [17] | hemolysis at 1 h, 0.48 μg/mL (Hemolytic activity assay) | hemolysis at 1 h, 0.975 μg/mL (Hemolytic activity assay) | hemolysis at 1 h, 1.95 μg/mL (Hemolytic activity assay) | other results
CCCCCCCCCCCCSC[C@H]1O[C@H](O[C@@H]2[C@@H](O)[C@H](O[C@H]3O[C@H](CN)[C@@H](O)C[C@H]3N)[C@@H](N)C[C@H]2N)[C@H](O)[C@@H](N)[C@@H]1O [Compound 3, O-3-Amino-3-deoxy-6-S-dodecyl-6-thio-α-D-glucopyranosyl-(1→6)-O-[2,6-diamino-2,3,6-trideoxy-α-D-ribo-hexopyranosyl-(1→4)]-2-deoxy-D-streptamine] | > 62.5 µg/mL | 15.6 µg/mL (≈ 23.9 µM) | 15.6 µg/mL (≈ 23.9 µM) | 7.8 to 31.3 µg/mL (≈ 12 to 48 µM) | 15.6 µg/mL (≈ 23.9 µM) | 3.9 to 15.6 µg/mL (≈ 5.98 to 23.9 µM) | 0.48 µg/mL (≈ 0.736 µM) | 15.6 µg/mL (≈ 23.9 µM) | 15.6 µg/mL (≈ 23.9 µM) | 15.6 µg/mL (≈ 23.9 µM) | 7.8 µg/mL (≈ 12 µM) | 7.8 µg/mL (≈ 12 µM) | 7.8 µg/mL (≈ 12 µM) | 15.6 µg/mL (≈ 23.9 µM) | 7.8 µg/mL (≈ 12 µM) | 3.9 µg/mL (≈ 5.98 µM) | 7.8 µg/mL (≈ 12 µM) | 0% | 2.5 ± 2.3% | 6 ± 3.5% | hemolysis at 1 h, 3.9 μg/mL (Hemolytic activity assay): 12 ± 1.9%; hemolysis at 1 h, 7.8 μg/mL (Hemolytic activity assay): 18.6 ± 6.6%; hemolysis at 1 h, 15.6 μg/mL (Hemolytic activity assay): 46.2 ± 2.3%; hemolysis at 1 h, 31.3 μg/mL (Hemolytic activity assay): 55.5 ± 3.9%; hemolysis at 1 h, 62.5 μg/mL (Hemolytic activity assay): 67 ± 4.6%; hemolysis at 1 h (Hemolytic activity assay): 12 to 74%; MIC [18, 20]: 1.95 to 3.9 µg/mL (≈ 2.99 to 5.98 µM); MIC [18]: 3.9 µg/mL (≈ 5.98 µM); MIC [19]: 15.6 µg/mL (≈ 23.9 µM)
CCCCCCCCCCCCc1cn(C[C@H]2O[C@H](O[C@@H]3[C@@H](O)[C@H](O[C@H]4O[C@H](CN)[C@@H](O)C[C@H]4N)[C@@H](N)C[C@H]3N)[C@H](O)[C@@H](N)[C@@H]2O)nn1 [Compound 7b, O-3-Amino-3,6-dideoxy-6-(4-dodecyl-1H-1,2,3-triazol-1-yl)-α-D-glucopyranosyl-(1→6)-O-[2,6-diamino-2,3,6-trideoxy-α-D-ribo-hexopyranosyl-(1→4)]-2-deoxy-D-streptamine] | 62.5 µg/mL (≈ 91 µM) | 3.9 µg/mL (≈ 5.68 µM) | 3.9 µg/mL (≈ 5.68 µM) | 3.9 to 15.6 µg/mL (≈ 5.68 to 22.7 µM) | 3.9 µg/mL (≈ 5.68 µM) | 1.95 to 7.8 µg/mL (≈ 2.84 to 11.4 µM) | 0.975 µg/mL (≈ 1.42 µM) | 15.6 µg/mL (≈ 22.7 µM) | 7.8 µg/mL (≈ 11.4 µM) | 7.8 µg/mL (≈ 11.4 µM) | 1.95 µg/mL (≈ 2.84 µM) | 3.9 µg/mL (≈ 5.68 µM) | 7.8 µg/mL (≈ 11.4 µM) | 7.8 µg/mL (≈ 11.4 µM) | 7.8 µg/mL (≈ 11.4 µM) | 3.9 µg/mL (≈ 5.68 µM) | 1.95 µg/mL (≈ 2.84 µM) | 0% | 0% | 14.8 ± 3.5% | hemolysis at 1 h, 3.9 μg/mL (Hemolytic activity assay): 13.4 ± 6.2%; hemolysis at 1 h, 7.8 μg/mL (Hemolytic activity assay): 24.6 ± 8.1%; hemolysis at 1 h, 15.6 μg/mL (Hemolytic activity assay): 40.8 ± 5.4%; hemolysis at 1 h, 31.3 μg/mL (Hemolytic activity assay): 55.5 ± 5.4%; hemolysis at 1 h, 62.5 μg/mL (Hemolytic activity assay): 74.1 ± 0.8%; hemolysis at 1 h (Hemolytic activity assay): 12 to 74%; MIC [18, 20]: 1.95 to 3.9 µg/mL (≈ 2.84 to 5.68 µM); MIC [18]: 1.95 µg/mL (≈ 2.84 µM); MIC [19]: 3.9 µg/mL (≈ 5.68 µM)
